Reference: article PMC3388095, “Fluorophore Labeled Kinase Detects Ligands That Bind within the MAPK Insert of p38α Kinase” (PLoS ONE, 2012)

What was measured:
Test in all cases: Kinase selectivity profile, 33P-ATP filter-binding assay
Format in all cases: biochemical
[1] = biological target: PKBβ (Homo sapiens, UniProt P31751)
Procedure, shortened: (§1)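 Remaining activity (%) was read out by 33P-ATP filter binding after testing the compound at 10 µM against a panel of 95 kinases.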

[2] = biological target: PRAK (Homo sapiens, UniProt Q8IW41)
Procedure, shortened: as §1

[3] = biological target: MARK4 (Homo sapiens, UniProt Q96L34)
Procedure, shortened: as §1

[4] = biological target: Aurora B (Homo sapiens, UniProt Q96GD4)
Procedure, shortened: as §1

[5] = biological target: IKKβ (Homo sapiens, UniProt O14920)
Procedure, shortened: as §1

[6] = biological target: PKD1 (Homo sapiens, UniProt Q15139)
Procedure, shortened: as §1

[7] = biological target: GSK3β (Homo sapiens, UniProt P49841)
Procedure, shortened: as §1

[8] = biological target: PRK2 (Homo sapiens, UniProt Q16513)
Procedure, shortened: as §1

[9] = biological target: PDK1 (Homo sapiens, UniProt O15530)
Procedure, shortened: as §1

[10] = biological target: IKKε (Homo sapiens, UniProt Q14164)
Procedure, shortened: as §1

[11] = biological target: IGF-1R (Homo sapiens, UniProt P08069)
Procedure, shortened: as §1

[12] = biological target: PKCα (Homo sapiens, UniProt P17252)
Procedure, shortened: as §1

Sequence of PRK2 (Q16513 whole entry): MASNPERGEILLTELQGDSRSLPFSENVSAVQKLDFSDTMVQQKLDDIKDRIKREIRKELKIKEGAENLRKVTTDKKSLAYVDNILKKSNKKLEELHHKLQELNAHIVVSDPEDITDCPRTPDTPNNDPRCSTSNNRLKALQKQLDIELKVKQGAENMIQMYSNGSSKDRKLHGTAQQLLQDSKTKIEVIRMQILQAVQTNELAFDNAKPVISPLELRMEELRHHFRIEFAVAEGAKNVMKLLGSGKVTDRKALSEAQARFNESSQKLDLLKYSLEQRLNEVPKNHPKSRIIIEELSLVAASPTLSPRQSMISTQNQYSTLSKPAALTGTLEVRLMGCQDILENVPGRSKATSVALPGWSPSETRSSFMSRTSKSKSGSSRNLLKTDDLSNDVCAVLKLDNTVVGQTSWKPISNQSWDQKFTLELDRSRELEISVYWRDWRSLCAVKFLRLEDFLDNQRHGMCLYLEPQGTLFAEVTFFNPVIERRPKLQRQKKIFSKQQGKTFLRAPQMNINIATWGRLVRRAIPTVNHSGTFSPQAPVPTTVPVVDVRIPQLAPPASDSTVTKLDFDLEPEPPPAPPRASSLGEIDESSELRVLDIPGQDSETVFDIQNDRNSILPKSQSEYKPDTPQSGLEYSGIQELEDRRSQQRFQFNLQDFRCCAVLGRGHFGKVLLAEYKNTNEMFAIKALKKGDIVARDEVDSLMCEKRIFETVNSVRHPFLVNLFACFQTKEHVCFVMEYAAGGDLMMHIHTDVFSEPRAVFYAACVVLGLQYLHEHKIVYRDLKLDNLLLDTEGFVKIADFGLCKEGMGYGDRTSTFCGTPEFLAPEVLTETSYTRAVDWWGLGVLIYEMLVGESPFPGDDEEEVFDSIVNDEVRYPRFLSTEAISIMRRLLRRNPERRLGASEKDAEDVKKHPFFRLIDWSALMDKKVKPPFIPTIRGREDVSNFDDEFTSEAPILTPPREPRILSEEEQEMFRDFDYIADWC
Sequence of IKKβ (O14920 whole entry): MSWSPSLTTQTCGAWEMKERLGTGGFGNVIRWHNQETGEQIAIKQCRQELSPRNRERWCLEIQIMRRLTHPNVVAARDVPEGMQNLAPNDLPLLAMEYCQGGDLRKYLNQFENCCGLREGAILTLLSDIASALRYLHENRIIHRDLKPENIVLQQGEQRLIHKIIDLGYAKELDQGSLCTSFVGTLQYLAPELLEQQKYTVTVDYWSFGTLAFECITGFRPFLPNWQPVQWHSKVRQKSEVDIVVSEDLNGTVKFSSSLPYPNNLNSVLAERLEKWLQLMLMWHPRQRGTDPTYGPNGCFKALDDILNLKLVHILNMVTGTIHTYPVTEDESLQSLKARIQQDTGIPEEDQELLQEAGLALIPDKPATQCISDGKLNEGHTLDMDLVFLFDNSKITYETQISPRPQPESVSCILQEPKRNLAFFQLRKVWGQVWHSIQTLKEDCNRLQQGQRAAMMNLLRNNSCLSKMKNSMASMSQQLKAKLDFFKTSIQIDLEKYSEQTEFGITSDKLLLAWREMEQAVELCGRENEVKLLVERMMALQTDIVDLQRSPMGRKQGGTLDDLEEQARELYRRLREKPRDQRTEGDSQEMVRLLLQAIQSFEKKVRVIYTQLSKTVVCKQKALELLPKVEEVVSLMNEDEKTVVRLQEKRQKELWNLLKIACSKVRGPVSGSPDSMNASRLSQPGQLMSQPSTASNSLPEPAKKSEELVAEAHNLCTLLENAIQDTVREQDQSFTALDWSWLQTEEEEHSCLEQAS
Sequence of GSK3β (P49841 whole entry): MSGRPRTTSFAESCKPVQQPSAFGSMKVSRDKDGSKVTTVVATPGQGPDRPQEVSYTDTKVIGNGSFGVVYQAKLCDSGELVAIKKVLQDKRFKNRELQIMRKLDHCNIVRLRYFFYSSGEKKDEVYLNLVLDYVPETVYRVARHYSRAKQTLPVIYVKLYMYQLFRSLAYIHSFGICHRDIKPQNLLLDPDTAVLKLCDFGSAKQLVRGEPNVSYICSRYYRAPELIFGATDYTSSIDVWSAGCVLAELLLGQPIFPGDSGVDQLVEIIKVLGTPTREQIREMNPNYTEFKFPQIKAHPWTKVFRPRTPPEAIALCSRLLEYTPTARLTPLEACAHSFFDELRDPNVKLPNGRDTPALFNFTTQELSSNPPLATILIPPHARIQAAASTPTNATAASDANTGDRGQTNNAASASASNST
Sequence of Aurora B (Q96GD4 whole entry): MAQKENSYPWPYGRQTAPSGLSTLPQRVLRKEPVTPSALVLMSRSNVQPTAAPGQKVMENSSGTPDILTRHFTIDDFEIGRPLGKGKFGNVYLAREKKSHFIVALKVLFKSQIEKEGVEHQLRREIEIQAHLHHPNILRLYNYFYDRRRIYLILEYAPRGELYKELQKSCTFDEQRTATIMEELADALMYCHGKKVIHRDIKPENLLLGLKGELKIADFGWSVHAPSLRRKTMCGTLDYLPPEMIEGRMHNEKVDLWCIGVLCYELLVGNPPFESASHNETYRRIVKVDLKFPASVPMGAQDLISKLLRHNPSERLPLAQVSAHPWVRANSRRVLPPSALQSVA
Sequence of PDK1 (O15530 whole entry): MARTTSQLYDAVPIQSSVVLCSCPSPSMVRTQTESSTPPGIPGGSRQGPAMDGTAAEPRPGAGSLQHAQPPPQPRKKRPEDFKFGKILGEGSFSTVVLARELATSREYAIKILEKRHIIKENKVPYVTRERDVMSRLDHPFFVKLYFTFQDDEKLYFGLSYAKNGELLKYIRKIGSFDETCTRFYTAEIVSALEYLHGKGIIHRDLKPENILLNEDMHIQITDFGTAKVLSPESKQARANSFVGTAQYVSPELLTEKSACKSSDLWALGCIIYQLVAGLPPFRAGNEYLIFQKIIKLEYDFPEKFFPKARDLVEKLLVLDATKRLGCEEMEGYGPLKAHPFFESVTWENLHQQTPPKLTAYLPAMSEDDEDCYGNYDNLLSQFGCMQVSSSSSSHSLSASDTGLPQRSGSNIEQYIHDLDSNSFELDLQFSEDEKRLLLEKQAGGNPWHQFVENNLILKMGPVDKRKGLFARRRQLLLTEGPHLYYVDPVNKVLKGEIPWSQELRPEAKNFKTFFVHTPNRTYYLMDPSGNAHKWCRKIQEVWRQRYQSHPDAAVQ
Sequence of PRAK (Q8IW41 whole entry): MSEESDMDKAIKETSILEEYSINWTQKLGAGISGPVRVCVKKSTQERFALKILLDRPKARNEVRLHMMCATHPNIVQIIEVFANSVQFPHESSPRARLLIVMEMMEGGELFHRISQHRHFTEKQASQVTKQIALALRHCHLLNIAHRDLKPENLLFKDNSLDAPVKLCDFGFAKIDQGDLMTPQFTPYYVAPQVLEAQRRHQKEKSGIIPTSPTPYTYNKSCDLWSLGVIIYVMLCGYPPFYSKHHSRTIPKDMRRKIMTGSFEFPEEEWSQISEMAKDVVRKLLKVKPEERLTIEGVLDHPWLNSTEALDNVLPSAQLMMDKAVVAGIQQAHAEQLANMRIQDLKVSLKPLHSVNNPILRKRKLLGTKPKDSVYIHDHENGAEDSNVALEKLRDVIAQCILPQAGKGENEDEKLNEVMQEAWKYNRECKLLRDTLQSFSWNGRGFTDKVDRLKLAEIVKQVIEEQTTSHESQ
Sequence of MARK4 (Q96L34 whole entry): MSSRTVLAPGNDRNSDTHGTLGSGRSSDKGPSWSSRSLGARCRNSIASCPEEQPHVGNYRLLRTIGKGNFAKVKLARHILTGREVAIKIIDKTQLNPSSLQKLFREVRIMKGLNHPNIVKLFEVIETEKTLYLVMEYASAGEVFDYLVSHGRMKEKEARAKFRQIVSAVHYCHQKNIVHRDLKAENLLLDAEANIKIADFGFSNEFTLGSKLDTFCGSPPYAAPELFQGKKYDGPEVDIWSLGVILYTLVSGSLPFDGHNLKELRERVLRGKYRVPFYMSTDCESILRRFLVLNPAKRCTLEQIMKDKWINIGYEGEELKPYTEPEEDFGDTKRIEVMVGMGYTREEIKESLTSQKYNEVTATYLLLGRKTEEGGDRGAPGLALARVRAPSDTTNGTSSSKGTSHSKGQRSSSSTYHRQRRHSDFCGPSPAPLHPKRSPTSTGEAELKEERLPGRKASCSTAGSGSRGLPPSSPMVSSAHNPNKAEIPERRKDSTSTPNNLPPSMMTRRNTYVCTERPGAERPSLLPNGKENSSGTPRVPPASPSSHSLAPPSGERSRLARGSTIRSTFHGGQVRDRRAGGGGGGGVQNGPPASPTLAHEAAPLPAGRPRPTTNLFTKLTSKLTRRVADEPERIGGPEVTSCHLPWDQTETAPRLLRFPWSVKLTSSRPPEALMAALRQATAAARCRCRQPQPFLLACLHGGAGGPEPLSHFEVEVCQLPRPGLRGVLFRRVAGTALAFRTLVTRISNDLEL

SMILES: Nc1ccc2c(NC3CC3)nc(-c3ccccc3)nc2c1 [1b, N^4-Cyclopropyl-2-phenyl-4,7-quinazolinediamine]
- remaining activity at 10 µM [1]: 75%
- remaining activity at 10 µM [2]: 91%
- remaining activity at 10 µM [3]: 93%
- remaining activity at 10 µM [4]: 53%
- remaining activity at 10 µM [5]: 97%
- remaining activity at 10 µM [6]: 79%
- remaining activity at 10 µM [7]: 80%
- remaining activity at 10 µM [8]: 103%
- remaining activity at 10 µM [9]: 100%
- remaining activity at 10 µM [10]: 89%
- remaining activity at 10 µM [11]: 81%
- remaining activity at 10 µM [12]: 96%
